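Dose response: 5 concentrations. Exposure: 48 h. Format: 96-well plates. Endpoint: linear interpolation; highest concentration if not reached. GI50 marks 50% less growth. At the TGI there is no net growth.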
What was measured:
Experiment in all cases: NCI tumour cell line growth inhibition, 48 h
HS 578T breast = system: HS 578T breast
SK-MEL-5 melanoma = system: SK-MEL-5 melanoma
HOP-62 NSCLC = system: HOP-62 NSCLC
UO-31 renal = system: UO-31 renal
OVCAR-8 ovarian = system: OVCAR-8 ovarian
HCT-116 colon = system: HCT-116 colon
HCC-2998 colon = system: HCC-2998 colon
TK-10 renal = system: TK-10 renal
SF-268 CNS = system: SF-268 CNS
SK-MEL-28 melanoma = system: SK-MEL-28 melanoma
HL-60(TB) leukemia = system: HL-60(TB) leukemia
KM12 colon = system: KM12 colon
T-47D breast = system: T-47D breast
OVCAR-4 ovarian = system: OVCAR-4 ovarian
MDA-MB-435 = system: MDA-MB-435
OVCAR-3 ovarian = system: OVCAR-3 ovarian
NCI-H522 lung = system: NCI-H522 lung
HCT-15 colon = system: HCT-15 colon
SF-539 CNS = system: SF-539 CNS
RXF 393 renal = system: RXF 393 renal
SK-OV-3 ovarian = system: SK-OV-3 ovarian
OVCAR-5 ovarian = system: OVCAR-5 ovarian
MOLT-4 leukemia = system: MOLT-4 leukemia
ACHN renal = system: ACHN renal
MCF7 breast = system: MCF7 breast
IGROV1 ovarian = system: IGROV1 ovarian
NCI/ADR-RES ovarian = system: NCI/ADR-RES ovarian
SR leukemia = system: SR leukemia
SK-MEL-2 melanoma = system: SK-MEL-2 melanoma
CCRF-CEM leukemia = system: CCRF-CEM leukemia
RPMI-8226 leukemia = system: RPMI-8226 leukemia
NCI-H460 lung = system: NCI-H460 lung
M14 melanoma = system: M14 melanoma
COLO 205 colon = system: COLO 205 colon
NCI-H23 lung = system: NCI-H23 lung

`COc1ccc(C(=O)/C=C/c2cc(-c3cc(OC)c(OC)c(OC)c3)n[nH]2)cc1` was tested, and the GI50 (HS 578T breast) was 3600 nM, the TGI (HS 578T breast) was > 100000 nM and the GI50 (SK-MEL-5 melanoma) was 1720 nM. For the same compound, the TGI (SK-MEL-5 melanoma) was 3240 nM, the GI50 (HOP-62 NSCLC) was 1760 nM and the TGI (HOP-62 NSCLC) was 3770 nM. For the same compound, the GI50 (UO-31 renal) was 1450 nM, the TGI (UO-31 renal) was 2840 nM and the GI50 (OVCAR-8 ovarian) was 2430 nM. For the same compound, the TGI (OVCAR-8 ovarian) was 8260 nM, the GI50 (HCT-116 colon) was 1730 nM and the TGI (HCT-116 colon) was 5860 nM. For the same compound, the GI50 (HCC-2998 colon) was 1780 nM, the TGI (HCC-2998 colon) was 3400 nM and the GI50 (TK-10 renal) was 2220 nM. It also gave a TGI (TK-10 renal) of 5770 nM, a GI50 (SF-268 CNS) of 1990 nM and a TGI (SF-268 CNS) of 5120 nM. The GI50 (SK-MEL-28 melanoma) was 2120 nM, the TGI (SK-MEL-28 melanoma) was 4420 nM and the GI50 (HL-60(TB) leukemia) was 2160 nM. For the same compound, the TGI (HL-60(TB) leukemia) was 4780 nM, the GI50 (KM12 colon) was 1560 nM and the TGI (KM12 colon) was 3060 nM. It also gave a GI50 (T-47D breast) of 2310 nM, a TGI (T-47D breast) of 13000 nM and a GI50 (OVCAR-4 ovarian) of 2200 nM. For the same compound, the TGI (OVCAR-4 ovarian) was 8320 nM, the GI50 (MDA-MB-435) was 2200 nM and the TGI (MDA-MB-435) was 5700 nM. It also gave a GI50 (OVCAR-3 ovarian) of 1740 nM, a TGI (OVCAR-3 ovarian) of 3560 nM and a GI50 (NCI-H522 lung) of 1470 nM. For the same compound, the TGI (NCI-H522 lung) was 3200 nM, the GI50 (HCT-15 colon) was 1580 nM and the TGI (HCT-15 colon) was 4370 nM. For the same compound, the GI50 (SF-539 CNS) was 1620 nM, the TGI (SF-539 CNS) was 3080 nM and the GI50 (RXF 393 renal) was 1270 nM. For the same compound, the TGI (RXF 393 renal) was 2560 nM, the GI50 (SK-OV-3 ovarian) was 3990 nM and the TGI (SK-OV-3 ovarian) was 20500 nM. It also gave a GI50 (OVCAR-5 ovarian) of 1880 nM, a TGI (OVCAR-5 ovarian) of 3780 nM and a GI50 (MOLT-4 leukemia) of 2670 nM. It also gave a TGI (MOLT-4 leukemia) of 6820 nM, a GI50 (ACHN renal) of 1960 nM and a TGI (ACHN renal) of 3630 nM. The GI50 (MCF7 breast) was 1150 nM, the TGI (MCF7 breast) was 2960 nM and the GI50 (IGROV1 ovarian) was 2210 nM. It also gave a TGI (IGROV1 ovarian) of 4810 nM, a GI50 (NCI/ADR-RES ovarian) of 2760 nM and a TGI (NCI/ADR-RES ovarian) of 9850 nM. For the same compound, the GI50 (SR leukemia) was 347 nM, the TGI (SR leukemia) was 23900 nM and the GI50 (SK-MEL-2 melanoma) was 4140 nM. It also gave a TGI (SK-MEL-2 melanoma) of 19600 nM, a GI50 (CCRF-CEM leukemia) of 1420 nM and a TGI (CCRF-CEM leukemia) of 5850 nM. For the same compound, the GI50 (RPMI-8226 leukemia) was 433 nM, the TGI (RPMI-8226 leukemia) was 2490 nM and the GI50 (NCI-H460 lung) was 1720 nM. For the same compound, the TGI (NCI-H460 lung) was 3750 nM, the GI50 (M14 melanoma) was 2200 nM and the TGI (M14 melanoma) was 4930 nM. It also gave a GI50 (COLO 205 colon) of 1730 nM, a TGI (COLO 205 colon) of 3240 nM and a GI50 (NCI-H23 lung) of 3040 nM. For the same compound, the TGI (NCI-H23 lung) was 12200 nM.

Source: PubChem BioAssay (NCI)
